Assay [1] deals with T1, A. aegypti CAPA receptor (CAPAr, anti-diuretic hormone receptor) (Aedes aegypti, UniProt A0A7D5D2Z2).
T1 sequence (A0A7D5D2Z2 1-712): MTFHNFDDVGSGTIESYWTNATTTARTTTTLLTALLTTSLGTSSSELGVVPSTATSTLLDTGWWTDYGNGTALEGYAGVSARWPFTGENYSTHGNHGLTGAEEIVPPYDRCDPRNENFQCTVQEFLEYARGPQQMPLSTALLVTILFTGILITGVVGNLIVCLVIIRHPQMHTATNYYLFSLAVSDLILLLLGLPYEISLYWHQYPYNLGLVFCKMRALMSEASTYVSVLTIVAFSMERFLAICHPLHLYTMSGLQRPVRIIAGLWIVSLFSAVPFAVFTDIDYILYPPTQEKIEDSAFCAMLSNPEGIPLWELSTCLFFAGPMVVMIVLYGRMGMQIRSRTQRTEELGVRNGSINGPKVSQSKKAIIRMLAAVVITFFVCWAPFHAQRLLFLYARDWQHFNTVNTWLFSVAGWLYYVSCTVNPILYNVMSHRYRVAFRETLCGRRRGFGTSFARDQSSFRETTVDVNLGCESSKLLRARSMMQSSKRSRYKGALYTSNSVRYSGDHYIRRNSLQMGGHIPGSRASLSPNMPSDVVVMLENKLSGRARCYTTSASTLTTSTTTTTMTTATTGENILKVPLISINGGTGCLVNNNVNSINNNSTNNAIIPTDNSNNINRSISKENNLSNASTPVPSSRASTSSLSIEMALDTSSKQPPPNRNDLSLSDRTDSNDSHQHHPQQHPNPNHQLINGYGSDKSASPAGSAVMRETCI
Put plainly: Heterologous receptor functional activation bioluminescence assay (CHO-K1 aequorin). In kind it is cell-based. The conditions noted are these: for CAPAr activation (in words): calcium-based luminescence. The procedure: (B) Raw luminescent response following application of each CAPA gene-derived neuropeptide and representative neuropeptides belonging to several insect families, each tested at 10 μM. For peptide sequence information and species origin, see Table S3. […] Data represent the mean ± standard error (n = 3).
The open reading frame of the cloned A. aegypti CAPAr was inserted into pcDNA3.1+ mammalian expression vector following procedures described previously[60],[92],[93]. Using a recombinant CHO-K1 cell line stably expressing aequorin[59], A. aegypti CAPAr was transiently expressed following growth and transfection conditions as reported recently. Cells were harvested for the functional assay at 48 hours post-transfection by detaching cells from the culture flask using 5 mM EDTA in Dulbecco’s PBS (DPBS; Wisent Corp., St. Bruno, QC) and later cells were resuspended at a concentration of 10^6–10^7 cells/mL in assay media and incubated with coelenterazine h as described previously. Prior to running the functional assay, cells were diluted 10-fold in assay media and left to incubate for one additional hour. Several endogenous as well as other insect neuropeptides representing a variety of neuropeptide families (see Table S2) were tested by preparing serial dilutions of each peptide in assay media. All peptides were commercially synthesized at a purity of >90% (Genscript, Piscataway, NJ) and 1 mM stock solutions were prepared by dissolving 1 mg of each peptide in water or DMSO as appropriate based on specific peptide characteristics. Recombinant CHO-K1 cells expressing the A. aegypti CAPAr were loaded into each well of multi-well plate using an automated injector module linked to a Synergy 2 Multi Mode Microplate Reader (BioTek, Winooski, VT) which measured kinetic luminescent response from each well for 20 sec immediately following cell loading onto the different peptides at various doses. Data was compiled in Microsoft Excel and analyzed in GraphPad Prism 8.0 (GraphPad Software, San Diego, CA).
Table S2. List and primary structure of several insect neuropeptides tested for functional activation of the mosquito anti-diuretic hormone (CAPA) receptor using heterologous bioassay.

Assay [2] has as its system isolated MTs of adult female A. aegypti (diuretic hormone-stimulated fluid secretion). Put plainly: Malpighian tubule fluid secretion assay (modified Ramsay assay). The note with it: for effect of inhibitor on inhibition by AedaeCAPA-1 and cGMP, 5HT-stimulated MTs: 5HT 100 nmol l^-1, AedaeCAPA-1 1 fmol l^-1 or cGMP (8 bromo-cGMP) 100 nmol l^-1, L-NAME 2 µmol l^-1 or KT5823 5 µmol l^-1, 60 min. Set-up: species or system Aedes aegypti. The method, then:
To further understand the anti-diuretic signaling pathway involving the CAPA neuroendocrine system, pharmacological blockers, including inhibitors of NOS (L-NAME) and PKG (KT5823), were tested against diuretic hormone-stimulated MTs alone and together with either AedaeCAPA-1 or cGMP.
Figure 5 Effect of a nitric oxide synthase (NOS) inhibitor (L-NAME) on the anti-diuretic activity of AedaeCAPA-1 and cGMP in DromeDH31-stimulated A. aegypti MTs. The NOS inhibitor, L-NAME, was applied against (A) DromeDH31- and (B) 5HT-stimulated MTs alone or in the presence of either AedaeCAPA-1 or cGMP. Secretion rates are presented as mean ± SEM, n = 17–22.
Figure 6 Effect of a protein kinase G (PKG) inhibitor (KT5823) on the anti-diuretic activity of AedaeCAPA-1 and cGMP in DromeDH31-stimulated A. aegypti MTs. The PKG inhibitor, KT5823, was applied against (A) DromeDH31- and (B) 5HT-stimulated MTs alone or in the presence of either AedaeCAPA-1 or cGMP. Secretion rates are presented as mean ± SEM, n = 16–25.
In order to determine fluid secretion rates, a modified Ramsay secretion assay[85] was performed on isolated MTs of 3–6 day old adult female A. aegypti, as reported recently. Tissue dissections were performed under physiological saline prepared as described previously[86] diluted 1:1 with Schneider’s Insect Medium (Sigma-Aldrich, Oakville, ON). Individual MTs were removed and transferred to a Sylgard-lined Petri dish containing 20 μl saline bathing droplets immersed in hydrated mineral oil to prevent evaporation. The proximal end of the MT was removed from the bathing saline and wrapped around a Minuten pin to allow for secretion measurements. Dosages of 25 nmol l^−1 DromeDH31[22] or 100 nmol l^−1 5HT[97],[98] alone or in combination with 1 fmol l^−1 AedaeCAPA-1[37] were applied to the isolated MTs as previously described. […] To investigate the effects of the pharmacological blockers, a nitric oxide synthase (NOS) inhibitor, Nω-Nitro-L-arginine methyl ester hydrochloride (L-NAME), and protein kinase G (PKG) inhibitor, KT5823, were used against 5-HT- and DH31-stimulated MTs. Dosages of 2 µmol l^−1 L-NAME (manufacturer’s recommended dose) and 5 µmol l^−1 KT5823[36] were applied to the MTs. The inhibitors were treated in conjunction with 1 fmol l^−1 AedaeCAPA-1 and/or 100 nmol l^−1 cyclic guanosine monophosphate, 8 bromo-cGMP (cGMP)[37] (Sigma-Aldrich, Oakville, ON, Canada). Unstimulated controls consisted of tubules bathed in physiological saline with no diuretic application. Following a 60-minute incubation period, the size of the secreted droplet was measured using an eyepiece micrometer and fluid secretion rate (FSR) was calculated as described previously. […]

For assay [3] the test system is unchanged. The conditions noted are these: ref [37]; cited from earlier work. The source says:
The influx of Ca^2+ through these channels activates NOS, causing the production of NO, which subsequently activates guanylate cyclase to increase levels of cGMP in the MTs[44]. Ultimately, the activation of the NO/cGMP pathway stimulates the apical V-type H^+-A ...

The mark [4] stands for this setting: CHO-K1 cells stably expressing aequorin, A. aegypti CAPAr transiently expressed (48 h post-transfection), coelenterazine h, kinetic luminescence for 20 sec, dose-response, n = 3, read-out: EC50 on CAPAr.
[5] abbreviates: n = 17–22 (L-NAME), 16–25 (KT5823).
[6] abbreviates: CHO-K1-aequorin cells expressing CAPAr, luminescence, tested up to 10 μM, read-out: EC50 on CAPAr (NA = no detectable activity).

Entries after “also recorded” stand apart in the source; their conditions may differ. Counter-ions that a name gives are not always drawn. Like-named read-outs stand apart in the source and are kept apart here. Non-standard residues stand in square brackets, D forms with d. Residues, ends and D or L forms follow the SMILES beside them. No end group written: not given here. pGlu = O=C1CC[C@@H](C(=O)O)N1 Where only a bound is given, the exact number is not on record here.

The values below come from publication PMC7000730, “CAPA neuropeptides and their receptor form an anti-diuretic hormone signaling system in the human disease vector, Aedes aegypti” (Scientific Reports, 2020).

Regarding `CC(C)C[C@H](NC(=O)CNC(=O)[C@@H]1CCC(=O)N1)C(=O)N[C@H](C(=O)N1CCC[C@H]1C(=O)N[C@@H](Cc1ccccc1)C(=O)N1CCC[C@H]1C(=O)N[C@@H](CCCNC(=N)N)C(=O)N[C@H](C(N)=O)C(C)C)C(C)C` [CAPA2] ([pGlu]GLVPFPRV-NH2), the “CAPAr activation (in words)” value in assay [1] (CHO-K1-aequorin cells expressing CAPAr) is given as “potently activate this receptor”. Moreover, in assay [1] (setting [4]), the EC50 (usually the concentration needed to bring the measured effect to its halfway point) is 0.00562 µM. Moreover, the “raw luminescent response at 10 μM (in words)” value in assay [1] (each peptide at 10 μM, vs BSA vehicle control, one-way ANOVA, Tukey, p < 0.01, n = 3) is recorded as “no difference in response was observed between the two endogenous CAPA neuropeptides”.
As for `COC(=O)[C@@]1(OC)C[C@H]2O[C@]1(C)n1c3ccccc3c3c4c(c5c6ccccc6n2c5c31)C(=O)N(C)C4` [KT5823], in assay [2] (setting [5]), the “effect of inhibitor on inhibition by AedaeCAPA-1 and cGMP, 5HT-stimulated MTs” value is “the inhibitory activity of AedaeCAPA-1 and cGMP on 5HT-stimulated tubules was abolished”. In assay [2] (AedaeCAPA-1 1 fmol l^-1 or cGMP 100 nmol l^-1, KT5823 5 µmol l^-1, 60 min), the “effect of inhibitor on inhibition of both DH31- and 5HT-stimulated diuresis” value is “the inhibition of both DH31- and 5HT stimulated diuresis by AedaeCAPA-1 and cGMP were sensitive to the PKG inhibitor, KT5823”. For the same molecule, in assay [2] (DromeDH31 25 nmol l^-1, AedaeCAPA-1 1 fmol l^-1 or cGMP (8 bromo-cGMP) 100 nmol l^-1, KT5823 5 µmol l^-1, 60 min, n = 16–25), the “effect of inhibitor on inhibition by both AedaeCAPA-1 and cGMP, DH31-stimulated MTs” value was “abolished the inhibitory effect of both cGMP and AedaeCAPA-1; also recorded: abolished the anti-diuretic activity of both AedaeCAPA-1 and cGMP, resulting in normal DH31-induced diuresis”.
Consider `COC(=O)[C@@H](N)CCCNC(N)=N[N+](=O)[O-]` [L-NAME, Nω-Nitro-L-arginine methyl ester hydrochloride], for which the “effect of inhibitor on inhibition by AedaeCAPA-1 and cGMP, 5HT-stimulated MTs” value in assay [2] (setting [5]) is listed as “neither AedaeCAPA-1 nor cGMP inhibition are influenced by L-NAME; also recorded: L-NAME had no influence on the anti-diuretic activity of AedaeCAPA-1 in 5HT-stimulated MTs”. The “effect of inhibitor on inhibition by AedaeCAPA-1, DH31-stimulated MTs” value in assay [2] (DromeDH31 25 nmol l^-1, AedaeCAPA-1 1 fmol l^-1, L-NAME 2 µmol l^-1 or KT5823 5 µmol l^-1, 60 min, n = 17–22 (L-NAME), 16–25 (KT5823)) was “the inhibitory effect of AedaeCAPA-1 was abolished; also recorded: AedaeCAPA-1 mediated inhibition of DH31-stimulated MTs was mitigated in the presence of L-NAME, reducing the anti-diuretic effects observed with AedaeCAPA-1”. Also, the “effect of inhibitor on inhibition by cGMP, DH31-stimulated MTs” value in assay [2] (DromeDH31 25 nmol l^-1, cGMP (8 bromo-cGMP) 100 nmol l^-1, L-NAME 2 µmol l^-1 or KT5823 5 µmol l^-1, 60 min, n = 17–22 (L-NAME), 16–25 (KT5823)) is “no influence on the inhibitory effect of cGMP; also recorded: did not alter the inhibitory effects of exogenous cGMP”.
In the case of `Nc1nc2c(nc(Br)n2[C@@H]2O[C@@H]3COP(=O)(O)O[C@H]3[C@H]2O)c(=O)[nH]1` [cGMP, cyclic guanosine monophosphate, 8 bromo-cGMP], in assay [3], the “inhibition of fluid secretion rate (earlier work)” value is on record as “considerably inhibits fluid secretion rate”.
Consider AGNSGANSGMWFGPRL-NH2 [PK1], for which the “luminescent response as activity compared to either CAPA peptide” value in assay [1] (10 μM (saturating dose), n = 3) is on record as ~ 20%. For the same molecule, the “potency compared to the canonical CAPA ligands” value in assay [1] (CAPAr in CHO-K1-aequorin cells) is on record as “over five orders of magnitude lower compared to the canonical CAPA ligands”. Moreover, the “CAPAr activation (in words)” value in assay [1] (CHO-K1-aequorin cells expressing CAPAr, listed as Aedae-PK1) is “low agonist activity”; in assay [1] (CHO-K1-aequorin cells expressing CAPAr, listed as pyrokinin 1-related peptide), “very poor activity compared to the two CAPA peptides”; in assay [1] (CHO-K1-aequorin cells expressing CAPAr, listed as pyrokinin-1), “a significantly higher concentration of pyrokinin-1 was needed to achieve even low level CAPAr activation”. The EC50 in assay [1] (CHO-K1 cells stably expressing aequorin, A. aegypti CAPAr transiently expressed (48 h post-transfection), coelenterazine h, kinetic luminescence for 20 sec, tested up to 10 μM, read-out: EC50 on CAPAr) was more than 10 µM.
With AWNSLHGGW-NH2 [MIP-7], the EC50 in assay [1] (setting [6]) is more than 10 µM.
Take GPTVGLFAFPRV-NH2 [CAPA1]: the half-maximal effective concentration (EC50) in assay [1] (setting [4]) was 0.00676 µM.
Consider GYRKPPFNGSIF-NH2 [SIFa], for which the EC50 in assay [1] (setting [6]) is more than 10 µM.
Consider KAVRSPSLRLRF-NH2 [sNPF], for which the half-maximal effective concentration (EC50) in assay [1] (setting [6]) was more than 10 µM.
On the same count and under the same terms, to NSVVLGKKQRFHSWG-NH2 [kinin] belongs more than 10 µM; to NTVNFSPRL-NH2 [PK2-1], more than 10 µM; to SALDKNFMRF-NH2 [FMRFa-1], more than 10 µM.
Consider SPPFAPRL-NH2 [PK2-2], for which the concentration for a half-maximal effect (EC50) in assay [1] (setting [6]) was more than 10 µM.
